Key:
Carbonic anhydrase 7 = Carbonic anhydrase 7 (Homo sapiens, UniProt P43166); experiment: Inhibition of human recombinant carbonic anhydrase 7 incubated for 15 mins prior to testing by stopped-flow CO2 hydration assay
Carbonic anhydrase 1 = Carbonic anhydrase 1 (Homo sapiens, UniProt P00915); experiment: Inhibition of human recombinant carbonic anhydrase 1 incubated for 15 mins prior to testing by stopped-flow CO2 hydration assay
Carbonic anhydrase 4 = Carbonic anhydrase 4 (Homo sapiens, UniProt P22748); experiment: Inhibition of human recombinant carbonic anhydrase 4 incubated for 15 mins prior to testing by stopped-flow CO2 hydration assay
Carbonic anhydrase 2 = Carbonic anhydrase 2 (Homo sapiens, UniProt P00918); experiment: Inhibition of human recombinant carbonic anhydrase 2 incubated for 15 mins prior to testing by stopped-flow CO2 hydration assay

Chain of Carbonic anhydrase 4 (P22748 whole entry): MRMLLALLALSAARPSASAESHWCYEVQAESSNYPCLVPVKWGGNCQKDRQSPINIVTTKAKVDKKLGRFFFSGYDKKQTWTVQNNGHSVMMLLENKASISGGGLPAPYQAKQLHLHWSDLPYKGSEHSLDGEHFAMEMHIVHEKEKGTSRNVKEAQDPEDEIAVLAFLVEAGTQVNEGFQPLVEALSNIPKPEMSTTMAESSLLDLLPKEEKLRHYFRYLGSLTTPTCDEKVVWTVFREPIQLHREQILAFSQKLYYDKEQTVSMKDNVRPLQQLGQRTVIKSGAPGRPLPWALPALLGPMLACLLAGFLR
Chain of Carbonic anhydrase 1 (P00915 whole entry): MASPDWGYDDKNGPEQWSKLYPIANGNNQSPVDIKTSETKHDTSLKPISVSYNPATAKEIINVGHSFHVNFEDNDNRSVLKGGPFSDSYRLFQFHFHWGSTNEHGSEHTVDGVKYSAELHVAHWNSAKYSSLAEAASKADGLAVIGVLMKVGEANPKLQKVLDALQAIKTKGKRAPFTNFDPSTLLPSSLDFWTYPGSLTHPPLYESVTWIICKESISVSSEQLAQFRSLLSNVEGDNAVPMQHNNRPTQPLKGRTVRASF
Chain of Carbonic anhydrase 7 (P43166 whole entry): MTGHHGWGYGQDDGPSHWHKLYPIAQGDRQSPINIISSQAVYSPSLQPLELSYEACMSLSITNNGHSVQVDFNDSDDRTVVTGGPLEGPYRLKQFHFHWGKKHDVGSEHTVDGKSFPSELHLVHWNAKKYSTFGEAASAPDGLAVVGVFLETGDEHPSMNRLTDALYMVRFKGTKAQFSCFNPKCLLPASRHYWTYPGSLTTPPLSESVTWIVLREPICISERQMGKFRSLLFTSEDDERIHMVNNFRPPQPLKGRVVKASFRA

Row | Structure (SMILES) | Ki (Carbonic anhydrase 7) | Ki (Carbonic anhydrase 1) | Ki (Carbonic anhydrase 4) | Ki (Carbonic anhydrase 2)
1 | NS(=O)(=O)c1ccc(CC/N=C2\NC(=O)/C(=C3/C(=O)Nc4ccc(Br)cc43)S2)cc1 | 79.3 nM | 3600 nM | 40.7 nM | 157 nM
2 | NS(=O)(=O)c1ccc(CC/N=C2\C(=O)N(Cc3ccccc3)c3ccccc32)cc1 | 536 nM | 746 nM | – | –
3 | CN1C(=O)/C(=N\CCc2ccc(S(N)(=O)=O)cc2)c2ccccc21 | 28.6 nM | 42 nM | – | –
4 | NS(=O)(=O)c1ccc(CC/N=C2\C(=O)N(Cc3ccccc3)c3ccc(Br)cc32)cc1 | – | 6150 nM | – | –
5 | NS(=O)(=O)c1ccc(CC/N=C2\NC(=O)/C(=C3/C(=O)Nc4ccccc43)S2)cc1 | – | 875 nM | – | 262 nM
6 | NS(=O)(=O)c1ccc(CC/N=C2\NC(=O)CS2)cc1 | 13.2 nM | 93.9 nM | 79.4 nM | 6.6 nM
7 | NS(=O)(=O)c1ccc(CC/N=C2\NC(=O)/C(=C3/C(=O)Nc4ccc(Cl)cc43)S2)cc1 | – | 4450 nM | – | 302 nM
8 | CN1C(=O)/C(=N\CCc2ccc(S(N)(=O)=O)cc2)c2cc(Cl)ccc21 | 91 nM | 668 nM | 31.2 nM | 7.7 nM
9 | CN1C(=O)/C(=N\CCc2ccc(S(N)(=O)=O)cc2)c2cc(Br)ccc21 | – | 64.9 nM | – | 5.9 nM
10 | NS(=O)(=O)c1ccc(CC/N=C2\NC(=O)/C(=C3/C(=O)Nc4ccc([N+](=O)[O-])cc43)S2)cc1 | – | 265 nM | – | 28.6 nM
11 | NS(=O)(=O)c1ccc(CC/N=C2\C(=O)N(Cc3ccccc3)c3ccc(Cl)cc32)cc1 | > 10000 nM | 8550 nM | – | –

Results, then the molecule that gave them:

Row | Ki (Carbonic anhydrase 7) | Ki (Carbonic anhydrase 1) | Ki (Carbonic anhydrase 4) | Ki (Carbonic anhydrase 2) | Structure (SMILES)
12 | – | 92.5 nM | – | – | NS(=O)(=O)c1ccc(CC/N=C2\C(=O)Nc3ccccc32)cc1
13 | – | 316 nM | – | – | Cc1ccc2c(c1)/C(=N/CCc1ccc(S(N)(=O)=O)cc1)C(=O)N2
14 | – | 64.1 nM | – | – | NS(=O)(=O)c1ccc(CC/N=C2\C(=O)Nc3ccc(Cl)cc32)cc1
15 | 90.9 nM | 256 nM | – | 50.5 nM | Cc1cc(C)c2c(c1)/C(=N/CCc1ccc(S(N)(=O)=O)cc1)C(=O)N2
16 | 67.2 nM | 845 nM | – | 63.9 nM | Cc1ccc2c(c1)/C(=C1/S/C(=N/CCc3ccc(S(N)(=O)=O)cc3)NC1=O)C(=O)N2
17 | – | 81.5 nM | – | – | NS(=O)(=O)c1ccc(CC/N=C2\C(=O)Nc3ccc(Br)cc32)cc1
18 | – | 206 nM | – | – | COc1ccc2c(c1)/C(=N/CCc1ccc(S(N)(=O)=O)cc1)C(=O)N2

From ChEMBL document CHEMBL3992540, “Novel indolin-2-one-based sulfonamides as carbonic anhydrase inhibitors: Synthesis, in vitro biological evaluation against carbonic anhydrases isoforms I, II, IV and VII and molecular docking studies” (Eur J Med Chem, 2017)
